Experimental findings from article PMC4527713, “An IPTG Inducible Conditional Expression System for Mycobacteria” (PLoS ONE, 2015) are described below.

The test concerns the target T1, RpoB (β subunit of RNA polymerase) (Mycolicibacterium smegmatis, UniProt P60281).
T1 construct: with RNA polymerase (multimeric enzyme)
T1 sequence (P60281 1-1169): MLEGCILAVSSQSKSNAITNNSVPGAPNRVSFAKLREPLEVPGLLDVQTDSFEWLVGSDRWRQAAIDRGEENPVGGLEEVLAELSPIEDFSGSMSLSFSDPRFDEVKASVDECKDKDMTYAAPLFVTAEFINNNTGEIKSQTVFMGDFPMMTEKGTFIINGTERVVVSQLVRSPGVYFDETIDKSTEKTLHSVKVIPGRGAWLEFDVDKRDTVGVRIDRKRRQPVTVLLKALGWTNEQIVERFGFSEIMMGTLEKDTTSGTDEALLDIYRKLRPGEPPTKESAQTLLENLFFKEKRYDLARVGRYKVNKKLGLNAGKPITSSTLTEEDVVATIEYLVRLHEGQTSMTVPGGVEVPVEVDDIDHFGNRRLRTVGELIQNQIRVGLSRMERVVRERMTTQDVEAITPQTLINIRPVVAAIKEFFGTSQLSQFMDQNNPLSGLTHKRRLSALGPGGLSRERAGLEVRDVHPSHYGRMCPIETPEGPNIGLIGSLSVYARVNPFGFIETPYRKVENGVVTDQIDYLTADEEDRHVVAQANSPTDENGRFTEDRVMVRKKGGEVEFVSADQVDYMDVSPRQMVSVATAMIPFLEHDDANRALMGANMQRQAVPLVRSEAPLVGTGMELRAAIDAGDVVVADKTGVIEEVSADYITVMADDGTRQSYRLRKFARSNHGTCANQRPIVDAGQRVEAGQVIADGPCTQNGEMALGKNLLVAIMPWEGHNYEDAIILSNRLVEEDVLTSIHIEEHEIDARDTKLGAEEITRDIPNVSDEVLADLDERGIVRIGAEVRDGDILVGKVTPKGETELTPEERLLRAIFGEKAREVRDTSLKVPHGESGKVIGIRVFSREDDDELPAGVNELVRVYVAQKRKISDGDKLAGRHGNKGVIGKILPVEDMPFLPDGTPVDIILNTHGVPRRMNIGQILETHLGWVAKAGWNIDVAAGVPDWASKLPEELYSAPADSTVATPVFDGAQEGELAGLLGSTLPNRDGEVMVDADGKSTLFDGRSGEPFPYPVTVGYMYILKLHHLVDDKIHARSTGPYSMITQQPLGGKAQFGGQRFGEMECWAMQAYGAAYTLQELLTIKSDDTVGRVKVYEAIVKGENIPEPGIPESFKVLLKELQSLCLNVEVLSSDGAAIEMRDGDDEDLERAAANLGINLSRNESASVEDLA
Description: MIC shift in rpoB knockdown strain ([…]; no shift in inhA knockdown); also reference inhibitor in the screens, IC50 not given. The format is cell-based.

With `CO[C@H]1/C=C/O[C@@]2(C)Oc3c(C)c(O)c4c(O)c(c(/C=N/N5CCN(C)CC5)c(O)c4c3C2=O)NC(=O)/C(C)=C\C=C\[C@H](C)[C@H](O)[C@@H](C)[C@@H](O)[C@@H](C)[C@H](OC(C)=O)[C@@H]1C` [rifampicin], the “MIC shift in rpoB knockdown strain (8 to 0.5 μg/ml; no shift in inhA knockdown);” value was “modulation in MIC of rifampicin and isoniazid are due to the reduction in the respective target protein levels”.
